Measurements as given in US20240415804A1, “METHOD OF TREATING PANCREATIC CANCER” (University of South Florida, priority 2022, published 2024).

Columns and labels:
MiaPaCa-2 cells = test: MTT cell viability assay, MiaPaCa-2; type: cell-based, human; details: API 40 μM, 24 h, vs DMSO vehicle
Procedure: The methyl thiazol tetrazolium (MTT) assay was performed as described previously^58. Briefly, MiaPaCa-2, Panc02 and UN-KC-6141 cells were seeded in 96-well plates at a density of 3000 cells/well and allowed to attach overnight. PC cells were then treated with API (40 μM) or DMSO (1%) as vehicle control for 24 h at 37° C. in 5% CO2 incubator. After 24 h, media was replaced with 20 μL of MTT (1 mg/mL) (Sigma-Aldrich) and incubated for 3 h at 37° C. in 5% CO2. MTT was replaced with DMSO, and absorbance was read at 570 nm.
MiaPaCa-2, Panc02 and UN-KC-6141 cells (2×10^5) were grown in 2 mL of growth medium in a 6-well tissue culture plate for 18-24 h until 60-80% confluency. The following solutions were prepared: Solution A) For each transfection, diluted 1 μL of miRNA-155 inhibitors (1 μM) (Table 2) or scrambled negative control miRNA (1 μM) (Qiagen, Germantown, MD, USA) into 50 μL Opti-MEM Transfection Medium (Invitrogen, Waltham, MA, USA). Solution B) For each transfection, diluted 3 μL of Hi-Perfect Transfection Reagent into 50 μL Opti-MEM Transfection Medium. Solution A was added directly to Solution B, mixed gently and the mixture incubated for 10-15 min at room temperature. […]

Bcl-2 = test: Western blot of Bcl-2 protein in UN-KC-6141 cells; type: cell-based, mouse; details: API 40 μM
Procedure: Single-cell suspensions of BM, digested pancreatic tumors cells and UN-KC-6141 cells treated with API (40 μM) were lysed with radioimmunoprecipitation buffer (Sigma-Aldrich), quantified with a BCA Protein Assay kit (Thermo Fisher Scientific, Waltham, MA, USA), resolved by SDS-PAGE (Thermo Fisher Scientific) and transferred onto a nitrocellulose membrane as previously described. Membranes were probed with either anti-SHIP-1 (Santa Cruz Biotechnology, Dallas, TX, USA), anti-iNOS (Cell Signaling Technology) or anti-Bcl-2 (Cell Signaling Technology, Danvers, MA, USA), all at a dilution of 1:1000. All blots were re-probed with a housekeeping protein, HRP-conjugated anti-β-actin (Sigma-Aldrich), at a dilution of 1:20,000. Membranes were then probed with the respective secondary anti-mouse or rabbit IgG HRP-conjugated antibodies (1:1000) of SHIP-1 and iNOS. Detection of SHIP-1, iNOS and β-actin proteins was performed using Super Signal West Pico or Femto Chemiluminescent Substrates (Thermo Fisher Scientific) and then imaged on a Bio-Rad Chemi Doc XRS Imaging System. Normalized densitometric ratios (divided by β-actin) were determined by quantifying WB results using Image J.

SHIP-1 [1] = test: SHIP-1 gene and protein expression in tumors of KC-HPC mice; type: in vivo, mouse; details: API 25 mg/kg IP three times per week for 17 days, vs vehicle
Procedure: To build on these findings, the inventors then used a novel pancreatic cancer cell line, UN-KC-6141, that resembles human PC due to its expression of a mutated Kras and generated mice harboring these tumor cells, called KC-HPC mice. Such mice were treated with API at a dose of 25 mg/kg (IP) three times per week for 17 days. The inventors examined if API also targets miR-155 and regulates SHIP-1 in the tumors from KC-HPC mouse model.
(§1) All female C57BL/6 mice (6-8 weeks of age) described in this study were purchased from Envigo (Indianapolis, IN, USA) and were acclimatize for one week in a pathogen-free animal facility (University of South Florida (USF) vivarium) before injections with PC cells. To generate heterotopic pancreatic cancer (HPC) models, mice were subcutaneously injected with 1.5×10^5 murine Panc02 (HPC mice) or 5×10^6 murine UN-KC-6141 cells (KC-HPC mice), in sterile 1× phosphate buffer saline (PBS), in the lower ventral abdomen, while control (CTRL) mice received sterile 1×PBS. […]
(§2) Isolation of total RNA from digested pancreatic tumors and BM cells was performed using a RNeasy Mini Kit (Qiagen), according to the manufacturer's instructions. RT-PCR of quantified and normalized total RNA was performed using a High-Capacity cDNA RT Kit with an RNase Inhibitor (Applied Biosystems), according to the manufacturer's instructions. […]

SHIP-1 [2] = test: SHIP-1 gene and protein expression in tumors of HPC mice; type: in vivo, mouse; details: API 25 mg/kg IP 3 times per week for 3-4 weeks, vs vehicle
Procedure: Earlier studies have shown the anti-tumor activity of API in pre-clinical experimental models of cancer^41, 62-68. The inventors have reported that API increased survival and reduced tumor growth in a heterotopic (H) mouse model of PC (HPC)^55. To investigate if API targets miR-155 and regulates SHIP-1 in the TME of an HPC mouse model, HPC mice were treated with API at a dose of 25 mg/kg (IP) 3 times per week for 3-4 weeks.
as §1, §2

In the case of O=c1cc(-c2ccc(O)cc2)oc2cc(O)cc(O)c12 [API, 40,5,7-Trihydroxyflavone, 5,7-Dihydroxy-2-(4-hydroxyphenyl)-4-benzopyrone], the “cell viability (MTT)” value (MiaPaCa-2 cells) is reported as “significantly inhibited”, the “Bcl-2 protein expression (WB)” value (Bcl-2) is reported as “significant decrease” and the “SHIP-1 gene expression in tumor” value (SHIP-1 [1]) is reported as “significantly increased”. For the same compound, the “SHIP-1 protein expression in tumor” value (SHIP-1 [1]) was “significantly increased”, the “SHIP-1 gene expression in tumor” value (SHIP-1 [2]) was “increased” and the “SHIP-1 protein expression in tumor” value (SHIP-1 [2]) was “increased”.
